Source: the supplement of paper PMC10307832

Key:
Experiment in all cases: relative viability (nuclei count vs DMSO), 5 days (fraction); higher = more cells survive
[1] = compound: Cc1ccc(C(=O)Nc2cccc(C(F)(F)F)c2)cc1Nc1cncc(C(N)=O)c1 [ALW-II-49-7] + COc1cc2c(Oc3ccc(NC(=O)C4(C(=O)Nc5ccc(F)cc5)CC4)cc3F)ccnc2cc1OCCCN1CCOCC1 [Foretinib] (partner 0.25 µM)
Outline: (§1)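 For relative viability, nuclei counts in treated wells were divided by those in vehicle wells. Lung cancer cell lines had been pin-tool dosed in 1536-well plates the day after seeding and cultured for 5 days, then fixed and stained in one step (final 0.05% Triton X-100, 1% formaldehyde, 1 ug/ml Hoechst) and imaged at 4×. Doses were one drug alone or a fixed anchor-drug dose plus five library-drug doses (not always all listed) in √10 steps, and values are duplicate-plate medians.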

[2] = compound: Cc1ccc(C(=O)Nc2cccc(C(F)(F)F)c2)cc1Nc1cncc(C(N)=O)c1 [ALW-II-49-7] + C[C@@H](Oc1cc(-c2cnn(C3CCNCC3)c2)cnc1N)c1c(Cl)ccc(F)c1Cl [Crizotinib] (partner 1 µM)
Outline: as §1

[3] = compound: C1CC1C(=O)NC2=NNC3=C2C=CC(=C3)C4=CC(=CC=C4)C(=O)NC5CC5 [XMD13-2] + CCNC(=O)c1noc(-c2cc(C(C)C)c(O)cc2O)c1-c1ccc(CN2CCOCC2)cc1 [Luminespib] (partner 0.01 µM)
Outline: as §1

| Cell Line | relative viability ([1]; first compound 0.08 µM) | relative viability ([1]; first compound 0.253 µM) | relative viability ([1]; first compound 0.8 µM) | relative viability ([1]; first compound 2.53 µM) | relative viability ([1]; first compound 8 µM) | relative viability ([2]; first compound 0.08 µM) | relative viability ([2]; first compound 0.253 µM) | relative viability ([2]; first compound 0.8 µM) | relative viability ([2]; first compound 2.53 µM) | relative viability ([2]; first compound 8 µM) | relative viability ([3]; first compound 0.05 µM) | relative viability ([3]; first compound 0.1581 µM) | relative viability ([3]; first compound 0.5 µM) | relative viability ([3]; first compound 1.581 µM) | relative viability ([3]; first compound 5 µM) |
| --- | --- | --- | --- | --- | --- | --- | --- | --- | --- | --- | --- | --- | --- | --- | --- |
| NCI-H727 | 1.17 | 0.832 | 1.1 | 0.912 | 1.08 | 0.739 | 0.874 | 0.847 | 0.804 | 0.885 | 0.475 | 0.326 | 0.352 | 0.34 | 0.378 |
| NCI-H838 | 0.988 | 1.12 | 1.04 | 1.12 | 1.24 | 0.851 | 0.871 | 0.854 | 0.788 | 1 | 0.398 | 0.308 | 0.407 | 0.235 | 0.347 |
| NCI-H1355 | 1.05 | 0.895 | 0.969 | 0.887 | 1.02 | 1 | 1.03 | 1.11 | 0.928 | 0.935 | 0.723 | 0.726 | 0.732 | 0.725 | 0.759 |
| NCI-H1437 | 1.35 | 1.26 | 1.2 | 1.26 | 1.16 | 0.897 | 0.865 | – | 0.869 | 0.896 | 1.16 | 1.14 | 1.1 | 1.04 | 1.19 |
| NCI-H1563 | 0.942 | 0.97 | 0.948 | 0.95 | 0.899 | 0.927 | 0.842 | 0.858 | 0.774 | 0.867 | 0.521 | 0.526 | 0.527 | 0.536 | 0.506 |
| NCI-H1650 | 1.04 | 1.18 | 1.08 | 1.05 | 1.13 | 0.946 | 0.859 | 0.931 | 1.01 | 1.14 | 0.187 | 0.21 | 0.209 | 0.19 | 0.21 |
| NCI-H1651 | 0.989 | 0.631 | 0.953 | 0.678 | 0.852 | 0.947 | 0.767 | 0.823 | 0.862 | 0.835 | 0.969 | 0.916 | 0.714 | 0.773 | 0.886 |
| NCI-H1666 | 0.954 | 0.887 | 0.964 | 1.05 | 1.05 | 0.948 | 0.964 | 0.909 | 1.06 | 0.965 | 1 | 0.992 | 0.965 | 1.03 | 1.01 |
| NCI-H1734 | 0.958 | 0.91 | 0.871 | 0.741 | 0.799 | 0.787 | 0.642 | 0.614 | 0.762 | 0.651 | 0.259 | 0.179 | 0.179 | 0.192 | 0.177 |
| NCI-H1755 | 0.875 | 1.06 | 0.807 | 0.931 | 0.825 | 0.917 | 0.859 | 0.753 | 0.79 | 0.69 | 0.441 | 0.502 | 0.419 | 0.44 | 0.433 |
| NCI-H1915 | 1.17 | 1.07 | 1.06 | 0.864 | 0.816 | 0.896 | 0.863 | 0.828 | 0.682 | 0.572 | 0.867 | 0.859 | 0.833 | 0.717 | 0.635 |
| NCI-H1944 | 0.997 | 0.801 | 0.964 | 0.846 | 0.954 | 1.14 | 0.981 | 1.06 | 1.09 | 1.12 | 0.797 | 0.756 | 0.758 | 0.899 | 0.697 |
| NCI-H1975 | 0.918 | 1.05 | 1 | 0.909 | 0.891 | 0.838 | 1.04 | 0.852 | 0.912 | 0.893 | 0.169 | 0.253 | 0.172 | 0.197 | 0.191 |
| NCI-H1993 | 0.7 | 0.852 | 0.797 | 0.756 | 0.892 | 0.744 | 1.01 | 0.884 | 1.06 | 1.06 | 1 | 0.663 | 0.833 | 0.801 | 1.09 |
| NCI-H2009 | 1.18 | 1.31 | 1.17 | 0.895 | 1.11 | 1.02 | 1.02 | 0.964 | 0.835 | 0.729 | 1.01 | 1.01 | 1.01 | 1.02 | 1.19 |
